The test system of one assay is Disease (black fruit). Briefly: Disease control test of Chinese wolfberry, black fruit. The class given is in vivo, Chinese wolfberry "Ningqi No. 7". How it is done:
The test was carried out in a Chinese wolfberry planting test plot in Koluke Town, Delingha City, Qinghai Province. Chinese wolfberry plants were all three-year-old seedlings of variety “Ningqi No. 7” at a density of 270 plants/667 m^2. This experiment was designed such that different plots were arranged in order. […] Fertilization method: It was applied together with other base fertilizers, by laying the fertilizer at the bottom of the planting pit, where the depth of the trench was 70 cm, the diameter of the pit was 80 cm, and the soil was mixed in and applied at the bottom when applying fertilizer. The yield, quality and control effect on disease on fresh Chinese wolfberry fruit were determined.

For the next assay, the system named is stem rot of peanut. As to the kind of experiment: Disease control test of peanut, stem rot. The class given is in vivo. Here is the method:
[…]. Fertilization method: The fertilizer was applied three times by spraying during the flowering and fruiting period. The yield, quality and control effect on disease on peanut were determined.

The results in this text go back to patent US20210078917A1, “FUNGICIDAL FERTILIZER COMPOSITION COMPRISING POTASSIUM PHOSPHITE AND GAMMA-POLY-GLUTAMIC ACID” (JIANGSU HUIFENG BIO AGRICULTURE CO., LTD., priority 2018, published 2021).

For γ-poly-glutamic acid, the “Disease (black fruit): Control effect” value was 17.56% with Disease (black fruit) (50 g/mu, 10 days after application); 10.99% in the assay on Disease (black fruit) (50 g/mu, 30 days after application); 29.17% in the assay with Disease (black fruit) (100 g/mu, 10 days after application); 21.35% in the assay with Disease (black fruit) (100 g/mu, 30 days after application). Moreover, the “Disease (Stem rot): Control effect” value stood at 20.41% in the assay with stem rot of peanut (30 g/mu, 10 days after application); 6.21% in the assay with stem rot of peanut (30 g/mu, 30 days after application); 31.29% in the assay with stem rot of peanut (60 g/mu, 10 days after application); 11.58% in the assay with stem rot of peanut (60 g/mu, 30 days after application).
